# Test results: US20190231785A1, “PHOSPHODIESTERASE INHIBITOR TREATMENT” (Cyrano Therapeutics, Inc., priority 2012, published 2019)
# Marks after values point to notes of the source that are not given here.
# Tested on: patients with hyposmia
# Assay: Olfactometry (DT, RT, ME, H; forced-choice, three-stimuli, stepwise-staircase, four odors), open trial of oral theophylline
# Type: in vivo, human
# From the text: Patients initially reported their sensory dysfunction as either loss of taste (e.g., flavor) and/or smell function. This subjective response was documented by objective psychophysical measurements of olfactory function administered to each patient by use of a forced-choice, three-stimuli, stepwise-staircase technique in a fixed, controlled design (1, 53). Efficacy of this technique and results of testing were previously documented in a double-blind clinical trial (53). Four odors were used; they were pyridine (dead-fish odor), nitrobenzene (bitter-almond odor), thiophene (petroleum-like odor) and amyl acetate (banana-oil odor). Detection thresholds (DT), recognition thresholds (RT) and magnitude estimation (ME) values for each odor were determined as previously described (1, 53). Thresholds were converted into bottle units (BU) as previously described (53) and results reported as M±SEM of correct responses for each odor in each treatment group; ME was reported in % and results calculated to obtain M±SEM for each treatment group for all correct responses using data for the four highest odor concentrations presented (from 10^−2M—an absolute odor concentration).
# In addition, each patient graded the hedonic (H) value of each odor presented for these same odor concentrations (from 10^−2M—an absolute odor concentration using a −100-0-+100 scale). […] Results were obtained by calculating the arithmetical sum of each correct recognition response for each odor with respect to its pleasantness, unpleasantness or neutrality. Arithmetic M±SEM were obtained for each treatment group for each odor presented.
# After determination of hyposmia, patients were treated in an open label, fixed design, controlled open trial. Patients were given an oral extended release theophylline in divided daily doses taken in the middle of breakfast and lunch. All patients were initially given 200 mg of theophylline; changes in this dose were made based upon subjective responses to therapy. If at a subsequent return visit, patients reported ≥5% subjective improvement in overall smell function, they continued on this same dose of theophylline and were reevaluated after four to six months of continued treatment. Results from any subsequent return from these improved patients were not included in any subsequent data report. All subsequent comparisons between treated and untreated patients were made only between those patients continuing in the study compared to their own measurements obtained in the untreated state. If patients reported <5% subjective improvement, their theophylline dose was increased by 200 mg daily and they were scheduled for retesting at the study site after two to four months at this new dosage. For patients that reported <5% improvement, this sequence continued until patients reached 800 mg of theophylline, at which time the study was considered completed.
# Patients returned for reevaluation after two to four months of treatment. Measurements of blood serum theophylline were measured by a fluorescence polarization assay (Abbott, Chicago, Ill.). At this time, subjective changes in smell function were measured independently (compared to patient's memory of previous normal smell function monitored by use of the patients' daily measurements) using the scale from −100-0-+100 previously described (vs). After independently recording their subjective responses, smell function was measured for all four odors with DT, RT, ME and H determined without recourse to prior measurements.
# Since data for all measurements from each patient group (local or distant) on each dose level were combined mean and SEM for each measurement (DT, RT, ME, H) of smell function for each treatment group were calculated on this basis. Differences in measurements between before treatment and each treatment level were calculated and significance of differences estimated using Student t tests (values p<0.05 considered significant). […]
# [1] = Type II hyposmia, oral 800 mg, after treatment (16 patients)
# [2] = Type III hyposmia, oral 200 mg, after treatment (4 patients)
# [3] = Type III hyposmia, oral 400 mg, after treatment (2 patients)
# [4] = Type III hyposmia, oral 600 mg, after treatment (4 patients)
# [5] = oral 800 mg, vs before treatment
compound,measurement,setting,value
Cn1c(=O)c2[nH]cnc2n(C)c1=O [theophylline],"recognition threshold (RT), thiophene","Type II hyposmia, oral 600 mg, after treatment (105 patients)",8.1 ± 0.3^a BU
same,"detection threshold (DT), amyl acetate",[1],4.6 ± 0.7^a BU
same,"detection threshold (DT), nitrobenzene",[1],4.6 ± 0.9^a BU
same,"detection threshold (DT), pyridine",[1],4.7 ± 0.7^a BU
same,"detection threshold (DT), thiophene",[1],4.9 ± 0.7^a BU
same,"hedonic value (H), amyl acetate",[1],13 ± 9%
same,"hedonic value (H), nitrobenzene",[1],22 ± 11%
same,"hedonic value (H), pyridine",[1],−31 ± 9%
same,"hedonic value (H), thiophene",[1],−24 ± 8%
same,"magnitude estimation (ME), amyl acetate",[1],38 ± 6^e %
same,"magnitude estimation (ME), nitrobenzene",[1],42 ± 8^b %
same,"magnitude estimation (ME), pyridine",[1],43 ± 5^e %
same,"magnitude estimation (ME), thiophene",[1],33 ± 6%
same,"recognition threshold (RT), amyl acetate",[1],7.1 ± 0.6^a BU
same,"recognition threshold (RT), nitrobenzene",[1],5.1 ± 0.9^a BU
same,"recognition threshold (RT), pyridine",[1],7.1 ± 0.7^a BU
same,"recognition threshold (RT), thiophene",[1],8.0 ± 1.0 BU
same,"detection threshold (DT), amyl acetate",[2],2.8 ± 0.5 BU
same,"detection threshold (DT), nitrobenzene",[2],3.8 ± 0.7 BU
same,"detection threshold (DT), pyridine",[2],4.0 ± 0.6 BU
same,"detection threshold (DT), thiophene",[2],3.2 ± 0.8 BU
same,"hedonic value (H), amyl acetate",[2],14 ± 13%
same,"hedonic value (H), nitrobenzene",[2],13 ± 12%
same,"hedonic value (H), pyridine",[2],−40 ± 13%
same,"hedonic value (H), thiophene",[2],−40 ± 18%
same,"magnitude estimation (ME), amyl acetate",[2],32 ± 10%
same,"magnitude estimation (ME), nitrobenzene",[2],33 ± 8%
same,"magnitude estimation (ME), pyridine",[2],45 ± 11%
same,"magnitude estimation (ME), thiophene",[2],47 ± 15%
same,"recognition threshold (RT), amyl acetate",[2],5.2 ± 1.6 BU
same,"recognition threshold (RT), nitrobenzene",[2],5.0 ± 0.6 BU
same,"recognition threshold (RT), pyridine",[2],5.2 ± 0.5 BU
same,"recognition threshold (RT), thiophene",[2],3.8 ± 0.6 BU
same,"detection threshold (DT), amyl acetate",[3],2 BU
same,"detection threshold (DT), nitrobenzene",[3],2.5 BU
same,"detection threshold (DT), pyridine",[3],5.0 BU
same,"detection threshold (DT), thiophene",[3],1 BU
same,"hedonic value (H), amyl acetate",[3],75%
same,"hedonic value (H), nitrobenzene",[3],−62%
same,"hedonic value (H), pyridine",[3],−40%
same,"hedonic value (H), thiophene",[3],−99%
same,"magnitude estimation (ME), amyl acetate",[3],75%
same,"magnitude estimation (ME), nitrobenzene",[3],79%
same,"magnitude estimation (ME), pyridine",[3],45%
same,"magnitude estimation (ME), thiophene",[3],99%
same,"recognition threshold (RT), amyl acetate",[3],3 BU
same,"recognition threshold (RT), nitrobenzene",[3],4.0 BU
same,"recognition threshold (RT), pyridine",[3],5.0 BU
same,"recognition threshold (RT), thiophene",[3],1 BU
same,"detection threshold (DT), amyl acetate",[4],2.5 ± 1.0 BU
same,"detection threshold (DT), nitrobenzene",[4],3.8 ± 0.9 BU
same,"detection threshold (DT), pyridine",[4],3.8 ± 0.9 BU
same,"detection threshold (DT), thiophene",[4],2.0 ± 1.0 BU
same,"hedonic value (H), amyl acetate",[4],28 ± 19%
same,"hedonic value (H), nitrobenzene",[4],12 ± 16%
same,"hedonic value (H), pyridine",[4],−26 ± 22%
same,"hedonic value (H), thiophene",[4],−35 ± 24%
same,"magnitude estimation (ME), amyl acetate",[4],31 ± 17%
same,"magnitude estimation (ME), nitrobenzene",[4],33 ± 13%
same,"magnitude estimation (ME), pyridine",[4],41 ± 15%
same,"magnitude estimation (ME), thiophene",[4],42 ± 20%
same,"recognition threshold (RT), amyl acetate",[4],4.8 ± 1.7 BU
same,"recognition threshold (RT), nitrobenzene",[4],4.5 ± 1.3 BU
same,"recognition threshold (RT), pyridine",[4],5.5 ± 0.9 BU
same,"recognition threshold (RT), thiophene",[4],3.8 ± 0.9 BU
same,"decrease in H, pyridine",oral 200 mg (Table IV),2%
same,"decrease in H, thiophene",oral 200 mg (Table IV),2%
same,"increase in H, amyl acetate (more pleasant)",oral 200 mg (Table IV),2%
same,"increase in H, nitrobenzene (more pleasant)",oral 200 mg (Table IV),2%
same,"increase in ME, amyl acetate",oral 200 mg (Table IV),5%
same,"increase in ME, nitrobenzene",oral 200 mg (Table IV),5%
same,"increase in ME, pyridine",oral 200 mg (Table IV),6%
same,"increase in ME, thiophene",oral 200 mg (Table IV),5%
same,"total mean increase in ME, all odors",oral 200 mg (Table IV),5.1%
same,"increase of H value, amyl acetate (more pleasant)","oral 200 mg, vs before treatment, not statistically significant",50%
same,"change in H, amyl acetate (decreased, became more pleasant)",oral 400 mg (Table V),1%
same,"change in H, nitrobenzene (decreased, became more pleasant)",oral 400 mg (Table V),4%
same,"change in H, pyridine (increases in H values)",oral 400 mg (Table V),9%
same,"change in H, thiophene (increases in H values)",oral 400 mg (Table V),7%
same,"increase in ME, amyl acetate",oral 400 mg (Table V),8%
same,"increase in ME, nitrobenzene",oral 400 mg (Table V),11%
same,"increase in ME, pyridine",oral 400 mg (Table V),12%
same,"increase in ME, thiophene",oral 400 mg (Table V),12%
same,"decrease of H value, thiophene (more unpleasant)","oral 400 mg, vs before treatment",40%
same,"increase of H value, nitrobenzene (more pleasant)","oral 400 mg, vs before treatment, not statistically significant",50%
same,"total mean increase in ME, all odors",oral 600 mg (Table VI),6.9%
same,"decrease of H value, pyridine (more unpleasant)",[5],55%
same,"decrease of H value, thiophene (more unpleasant)",[5],37%
same,"increase of H value, amyl acetate (more pleasant)",[5],about 50%
same,"increase of H value, nitrobenzene (more pleasant)",[5],about 50%
